{"source": "patent US7595173B2", "about": "“Low-cost production of peptides” (Dow Global Technologies Inc., priority 2002, dated 2009)", "tested_on": "E. coli strain BL21 (DE3)", "assay": "Antimicrobial activity: dose-dependent inhibition of E. coli growth (standard growth inhibition assay)", "assay_type": "cell-based", "procedure": "The antimicrobial activity of the cleaved peptides (same samples from Examples 5 and 6) was determined by measuring the dose-dependent inhibition of E. coli growth. The samples were tested for their ability to inhibit the growth of an overnight culture inoculated with E. coli strain BL21 (DE3). AMP samples were diluted serially into water in 96 well plates. Overnight cultures of E. coli BL21 (DE3) cells were diluted 1:50 into LB broth and 250 μl aliquots were transferred into 96-well plates. Each plate was incubated at 37° C. for one hour and then 50 μl of diluted peptide (or water) were added to each well. Each plate was incubated overnight at 37° C. and then the culture density was determined by measuring the apparent absorbance at 600 nm using a Spectromax Plus plate reader.", "note": "“Also recorded” adds a separate entry of the source. Ends that are not written are not given here.", "data": [{"sequence": "PFAKKFAKKFKKFAKKFAKFAFAFGD [D2A21 with an additional proline on the N-terminus and a glycine-aspartate dipeptide on its C-terminus]", "values": [{"measurement": "antimicrobial activity as compared to the D2A21 core/parent peptide", "value": "equivalent antimicrobial activity; also recorded: did not adversely affect the activity"}]}]}
